The values below come from patent publication US20260231992A1, “A PROCESS FOR MYCOTOXIN DETOXIFICATION USING LACTOCOCCUS LACTIS” (priority 2023, published 2026).

In brackets after ≈: the same amount, converted by molar mass. Where two headings read alike, the source gives them in different places.

Common to all, as to type: cell-based
The subject of test [1] is Staphylococcus aureus NCIM 2079. Put plainly: microbe, parasite or virus in culture. The following applies: Staphylococcus aureus NCIM 2079, 24 h at 37° C.
The test system of test [2] is Bacillus subtilis NCIM 2010. As to the kind of experiment: microbe, parasite or virus in culture. The following applies: Bacillus subtilis NCIM 2010, 24 h at 37° C.
Test [3] relates to Escherichia coli NCIM 2065. As to the kind of experiment: microbe, parasite or virus in culture. Conditions: Escherichia coli NCIM 2065, 24 h at 37° C.
Test [4] has as its system Serratia marcescens NCIM 2919. As to the kind of experiment: microbe, parasite or virus in culture. The following applies: Serratia marcescens NCIM 2919, 24 h at 37° C.
In test [5] the test system is Pseudomonas desmolyticum NCIM 2112. As to the kind of experiment: microbe, parasite or virus in culture. Conditions: Pseudomonas desmolyticum NCIM 2112, 24 h at 37° C.
The subject of test [6] is Mycobacterium smegmatis NCIM 5138. Put plainly: microbe, parasite or virus in culture. The following applies: Mycolicibacterium smegmatis, NCIM5138; Mycobacterium smegmatis NCIM 5138, 48 h.
Test [7] deals with Candida albicans NCIM 3557. Put plainly: Antifungal MIC, RPMI-1640, resazurin. The following applies: Candida albicans NCIM 3557, 48 to 72 h at 28° C. Background: The colour change of resazurin is a common sign of viable cells or microbes.
Test [8] has as its system Fusarium verticillioides BIONCL4. Put plainly: Antifungal MIC, RPMI-1640, resazurin. Conditions: Fusarium verticillioides BIONCL4, 48 to 72 h at 28° C.
Test [9] concerns Fusarium graminearum MTCC1893. As to the kind of experiment: microbe, parasite or virus in culture.
In test [10] the test system is Aspergillus niger BIONCL 12. Put plainly: Antifungal MIC, RPMI-1640, resazurin. The following applies: Aspergillus niger BIONCL 12, 48 to 72 h at 28° C.
The test system of test [11] is Gram-positive and Gram-negative bacteria. As to the kind of experiment: Antibacterial MIC, whole panel of tested strains. The following applies: span over all tested bacterial strains; read-out: MICs against tested bacterial strains.
The subject of another test is fungal strains tested. As to the kind of experiment: microbe, parasite or virus in culture. The following applies: Fusarium graminearum, read-out: MIC against the fungal strains tested.
Where [12] appears, read: NCIM3557, read-out: MIC (converted).
[13] abbreviates: Fusarium graminearum, MTCC1893, Fusarium graminearum MTCC1893, 48 to 72 h at 28° C.

Regarding `CC(C)(C)c1ccc(O)c(C(C)(C)C)c1` [C-1, 2,4-di-tert-butylphenol], the MIC in test [1] (NCIM2079, read-out: MIC) worked out at 6.25 µg/mL (≈ 30.3 µM); in test [2] (NCIM2010, read-out: MIC), 3.12 µg/mL (≈ 15.1 µM); in [3] (NCIM2065, read-out: MIC), 3.12 µg/mL (≈ 15.1 µM); in test [4] (NCIM2919, read-out: MIC), 1.56 µg/mL (≈ 7.56 µM); in [5] (NCIM2112, read-out: MIC), 6.25 µg/mL (≈ 30.3 µM); in [6], 3.12 µg/mL (≈ 15.1 µM). For the same compound, the MIC is 12.5 µg/mL (≈ 60.6 µM) in test [7] (setting [12]); 6.25 µg/mL (≈ 30.3 µM) in test [8] (read-out: MIC (converted)); 6.25 µg/mL (≈ 30.3 µM) in test [9] (setting [13]); 12.50 µg/mL (≈ 60.6 µM) in [10]; 12.5 µg/mL (≈ 60.6 µM) in test [10] (BIONCL12, read-out: MIC); 1.56 to 25 µg/mL (≈ 7.56 to 121 µM) in test [11].
As to `CC1=C(O)C(=O)C(O)CO1` (centres unmarked) [C-2, 3,5-dihydroxy-6-methyl-2,3-dihydro-4H-pyran-4-one], the MIC came out at 3.12 µg/mL (≈ 21.6 µM) in test [1] (NCIM2079, read-out: MIC); 6.25 µg/mL (≈ 43.4 µM) in [2] (NCIM2010, read-out: MIC); 6.25 µg/mL (≈ 43.4 µM) in test [3] (NCIM2065, read-out: MIC); 3.12 µg/mL (≈ 21.6 µM) in test [4] (NCIM2919, read-out: MIC); 6.25 µg/mL (≈ 43.4 µM) in [5] (NCIM2112, read-out: MIC); 12.5 µg/mL (≈ 86.7 µM) in test [6]. Further, the MIC in test [7] (setting [12]) was 3.12 µg/mL (≈ 21.6 µM); in test [8] (read-out: MIC (converted)), 3.12 µg/mL (≈ 21.6 µM); in test [9] (setting [13]), 6.25 µg/mL (≈ 43.4 µM); in [10] (BIONCL12, read-out: MIC), 3.12 µg/mL (≈ 21.6 µM); in test [11] it was 1.56 to 25 µg/mL (≈ 10.8 to 173 µM); with fungal strains tested it was 3.12 to 6.25 µg/mL (≈ 21.6 to 43.4 µM).
For the compound `NC(=O)c1cnccn1` [C-3, Pyrazine-2-carboxamide], the MIC came out at 25 µg/mL (≈ 203 µM) in test [1] (NCIM2079, read-out: MIC); 25.0 µg/mL (≈ 203 µM) in [1]; 25.0 µg/mL (≈ 203 µM) in test [2]; 25 µg/mL (≈ 203 µM) in [2] (NCIM2010, read-out: MIC); 25.0 µg/mL (≈ 203 µM) in test [3]; 25 µg/mL (≈ 203 µM) in [3] (NCIM2065, read-out: MIC). Moreover, the MIC in test [4] (NCIM2919, read-out: MIC) was found to be 25 µg/mL (≈ 203 µM); in test [4], 25.0 µg/mL (≈ 203 µM); in test [5] (NCIM2112, read-out: MIC), 25 µg/mL (≈ 203 µM); in test [5], 25.0 µg/mL (≈ 203 µM); in test [6] it was 12.5 µg/mL (≈ 102 µM); in test [7], 12.5 µg/mL (≈ 102 µM). The MIC is 12.5 µg/mL (≈ 102 µM) in test [7] (setting [12]); 12.5 µg/mL (≈ 102 µM) in test [8]; 12.5 µg/mL (≈ 102 µM) in test [8] (read-out: MIC (converted)); 50.0 µg/mL (≈ 406 µM) in [9] (Fusarium graminearum MTCC1893, 48 to 72 h at 28° C.); 25 µg/mL (≈ 203 µM) in [9] (setting [13]); 25.0 µg/mL (≈ 203 µM) in test [10]. Further, the MIC is 25 µg/mL (≈ 203 µM) in test [10] (BIONCL12, read-out: MIC) and 1.56 to 25 µg/mL (≈ 12.7 to 203 µM) in test [11].
